Reference: patent US20090012061A1, “A Method of Treating Cancer” (priority 2004, published 2009)
Where “and” joins values, the source holds several entries; their conditions need not be identical. Equal values may be shown once. Read-outs that look alike come from different tables or passages of the source.

Columns and labels:
[1] = target: T1, human KSP motor domain (KSP(367H)) (Homo sapiens, UniProt P52732); test: Kinesin ATPase in vitro assay (KSP ATPase, quinaldine red/ammonium molybdate phosphate detection); format: biochemical
T1 construct: were used to amplify the motor domain and the neck linker region; made in house; host or cells: E. coli BL21 (DE3), pRSETa
T1 sequence (P52732 18-359 limits assumed): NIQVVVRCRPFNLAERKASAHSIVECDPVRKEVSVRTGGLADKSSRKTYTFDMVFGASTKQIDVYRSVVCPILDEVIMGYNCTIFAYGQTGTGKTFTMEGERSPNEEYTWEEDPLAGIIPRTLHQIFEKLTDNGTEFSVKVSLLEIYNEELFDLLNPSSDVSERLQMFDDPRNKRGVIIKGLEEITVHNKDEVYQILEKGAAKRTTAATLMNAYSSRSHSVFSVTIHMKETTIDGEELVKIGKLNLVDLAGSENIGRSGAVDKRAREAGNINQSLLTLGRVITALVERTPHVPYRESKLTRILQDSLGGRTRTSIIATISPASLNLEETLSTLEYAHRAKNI
Excerpt: Plasmids for the expression of the human KSP motor domain construct were cloned by PCR using a pBluescript full length human KSP construct (Blangy et al., Cell, vol. 83, pp 1159-1169, 1995) as a template. The N-terminal primer 5′-[…] (SEQ.ID.NO.: 1) and the C-terminal primer 5′-[…] […] (SEQ.ID.NO.: 2) were used to amplify the motor domain and the neck linker region. The PCR products were digested with AseI and XhoI, ligated into the NdeI/XhoI digestion product of pRSETa (Invitrogen) and transformed into E. coli BL21 (DE3).
Cells were grown at 37° C. to an OD600 of 0.5. After cooling the culture to room temperature expression of KSP was induced with 100 μM IPTG and incubation was continued overnight. Cells were pelleted by centrifugation and washed once with ice-cold PBS. Pellets were flash-frozen and stored −80° C.
Cell pellets were thawed on ice and resuspended in lysis buffer (50 mM K-HEPES, pH 8.0, 250 mM KCl, 0.1% Tween, 10 mM imidazole, 0.5 mM Mg-ATP, 1 mM PMSF, 2 mM benzimidine, 1× complete protease inhibitor cocktail (Roche)). Cell suspensions were incubated with 1 mg/ml lysozyme and 5 mM β-mercaptoethanol on ice for 10 minutes, followed by sonication (3×30 sec). All subsequent procedures were performed at 4° C. Lysates were centrifuged at 40,000×g for 40 minutes. Supernatants were diluted and loaded onto an SP Sepharose column (Phamacia, 5 ml cartridge) in buffer A (50 mM K-HEPES, pH 6.8, 1 mM MgCl2, 1 mM EGTA, 10 μM Mg-ATP, 1 mM DTT) and eluted with a 0 to 750 mM KCl gradient in buffer A. Fractions containing KSP were pooled and incubated with Ni-NTA resin (Qiagen) for one hour. The resin was washed three times with buffer B (Lysis buffer minus PMSF and protease inhibitor cocktail), followed by three 15-minute incubations and washes with buffer B. Finally, the resin was incubated and washed for 15 minutes three times with buffer C (same as buffer B except for pH 6.0) and poured into a column. KSP was eluted with elution buffer (identical to buffer B except for 150 mM KCl and 250 mM imidazole). KSP-containing fractions were pooled, made 10% in sucrose, and stored at −80° C.
Microtubules are prepared from tubulin isolated from bovine brain. Purified tubulin (>97% MAP-free) at 1 mg/ml is polymerized at 37° C. in the presence of 10 μM paclitaxel, 1 mM DTT, 1 mM GTP in BRB80 buffer (80 mM K-PIPES, 1 mM EGTA, 1 mM MgCl2 at pH 6.8). The resulting microtubules are separated from non-polymerized tubulin by ultracentrifugation and removal of the supernatant. The pellet, containing the microtubules, is gently resuspended in 10 μM paclitaxel, 1 mM DTT, 50 μg/ml ampicillin, and 5 μg/ml chloramphenicol in BRB80.
(§1) The kinesin motor domain (20 nM) is incubated with microtubules, ATP (1 mM 1:1 MgCl2: Na-ATP), and compound at 23° C. in buffer containing 80 mM K-HEPES (pH 7.0), 1 mM EGTA, 1 mM DTT, 1 mM MgCl2, and 50 mM KCl. The reaction is terminated by a 2-10 fold dilution with a final buffer composition of 80 mM HEPES and 50 mM EDTA (or, alternately, with a 1:1 addition of reaction volume to stop buffer(1.8M KCl and 50 mM EDTA)). Free phosphate from the ATP hydrolysis reaction is measured via a quinaldine red/ammonium molybdate assay by adding a 1.5 times volume of quench C (e.g., to a mixture of […] reaction volume+40 μl stop buffer is then added 120 μl quench C). Quench A contains 0.1 mg/ml quinaldine red and 0.14% polyvinyl alcohol; quench B contains 12.3 mM ammonium molybdate tetrahydrate in 1.15 M sulfuric acid. Quench C is a 2:1 ratio of quench A:quench B The reaction is incubated for 5-10 minutes at 23° C., and the absorbance of the phospho-molybdate complex is measured at 540 nm.
In order to identify compounds useful in the methods of the instant invention, the assay described above was then performed in the presence (0.5 μM) and absence of microtubules. Compounds that are commercially available are noted by the source and catalog number.

[2] = target: T1, human KSP motor domain (KSP(367H)); test: Substrate competitive profile by Michaelis-Menton analysis with the KSP ATPase assay; format: biochemical; conditions: for Competitive with ATP?: ATP varied between 4 μM and 500 μM, in the presence of 2 μM of microtubules; for Competitive with MT?: microtubules varied between 0.01 μM and 5 μM, in the presence of 1 mM of ATP
Procedure: as §1
The in vitro substrate competitive profiles of the compounds described in Table 1 below were determined using a Michaelis-Menton analysis with the assay described above, but varying assay concentrations of one of the substrates (ATP or microtubule) in the presence of excess of the second substrate. Thus, the concentration of ATP was varied between 4 μM and 500 μM, in the presence of 2 μM of microtubules. And the concentration of microtubules was varied between 0.01 μM and 5 μM, in the presence of 1 mM of ATP.

[3] = Table 1, kinesin motor domain 20 nM, with microtubules, 1 mM ATP, 23° C., read-out: KSP ATPase IC50
[4] = Table 2, microtubules absent (basal), [MT] = 0 uM, standard KSP(ADP), read-out: KSP ATPase IC50 (nM) [MT] = 0 uM
[5] = Table 2, microtubules present, [MT] = 0.5 uM, standard KSP(ADP), read-out: KSP ATPase IC50 (nM) [MT] = 0.5 uM

SMILES	IC50 [1, 3]	IC50 [1, 4]	IC50 [1, 5]	Competitive with ATP? [2]	Competitive with MT? [2]	IC50 ([1]; KSP ATPase IC50 (nM) [MT] = 0 uM, Table 2, microtubules absent (basal), [MT] = 0 uM, standard KSP(ADP))	IC50 ([1]; KSP ATPase IC50 (nM) [MT] = 0.5 uM, Table 2, microtubules present, [MT] = 0.5 uM, standard KSP(ADP))	IC50 ([1]; KSP ATPase IC50 (nM), Table 1, kinesin motor domain 20 nM, with microtubules, 1 mM ATP, 23° C.)
CC(C)(C)c1ccc2[nH]c3c(c2c1)CCCC3=O [Compound 1]	597 nM	> 50000 nM	619 nM and 685 nM	no	no			
O=C(Nc1nc2ccccc2s1)C(c1ccccc1)c1ccccc1 [Compound 2]	1090 nM	> 50000 nM	1400 nM and 2150 nM	no	no			
O=C(NC(C(=O)c1ccccc1)c1ccccc1)OCc1ccccc1 (centres unmarked) [Compound 3, N-(2-Oxo-1,2-diphenyl-ethyl)-carbamic acid benzyl ester]	2360 nM	> 50000 nM	4050 nM and 2940 nM	no	no			
CCCc1cc(N)c2cc(NC(=O)c3ccc(Oc4ccc(Cl)cc4)cc3)ccc2n1 [Compound 4]	3230 nM	> 50000 nM	2550 nM and 3430 nM	no	no			
Oc1cccc(CC2(Cc3cccc(O)c3)Cc3ccccc3C2)c1 [Compound 5]	5870 nM	> 50000 nM	7740 nM	no	no			
CC(C)(C)c1cccc(NC(=O)Nc2ccc3ccc(O)cc3c2)c1 [Compound 6, N-(3-tert-butylphenyl)-N-(7-hydroxy-2-naphthyl)urea]	1900 nM	> 50000 nM	2780 nM	no	no			
C=CCNC(=O)c1cc(-c2ccc(Cl)cc2)n(-c2cc(Cl)ccc2Cl)n1 [Compound 8]	5040 nM	> 50000 nM	3100 nM and 5540 nM	no	no			
CCN1C(=O)C(O)(c2ccccc2)c2cc(Br)ccc21 (centres unmarked) [Compound 14]				no	no	> 50000 nM	8920 nM and 4600 nM	3920 nM

More lines, main results first:

IC50 [1, 3]	IC50 [1, 4]	IC50 [1, 5]	Competitive with ATP? [2]	Competitive with MT? [2]	SMILES	IC50 ([1]; KSP ATPase IC50 (nM) [MT] = 0 uM, Table 2, microtubules absent (basal), [MT] = 0 uM, standard KSP(ADP))	IC50 ([1]; KSP ATPase IC50 (nM) [MT] = 0.5 uM, Table 2, microtubules present, [MT] = 0.5 uM, standard KSP(ADP))	IC50 ([1]; KSP ATPase IC50 (nM), Table 1, kinesin motor domain 20 nM, with microtubules, 1 mM ATP, 23° C.)
3850 nM	> 50000 nM	3690 nM and 6290 nM	no	no	Cc1ccc(NC(=O)C(c2ccccc2)c2ccccc2)cc1[N+](=O)[O-] [Compound 7]			
692 nM	> 50000 nM	647 nM	no	no	O=C(Nc1ccc(Br)c(Cl)c1)C(c1ccccc1)c1ccccc1 [Compound 9]			
4750 nM	> 50000 nM	5040 nM	no	no	Cc1cc2ncn(CC(O)COc3ccc(I)cc3)c2cc1C (centres unmarked) [Compound 10]			
1230 nM	> 50000 nM	1820 nM and 1360 nM	no	no	Cc1nn(C(=S)NCc2ccccc2)c2c1[C@H]1[C@@H](C2)C1(C)C [Compound 11]			
556 nM	> 50000 nM	1150 nM	no		CCOC(=O)CSc1nc(C23CC4CC(CC(C4)C2)C3)ccc1C#N [Compound 12]			
864 nM	> 50000 nM	2530 nM and 4520 nM	no	no	O=C(c1cc([N+](=O)[O-])ccc1Cl)N1c2ccccc2Sc2ccccc21 [Compound 13]			
7020 nM and 6750 nM	> 50000 nM	8880 nM	no	no	CSc1ccc(C(=O)N2CCCN(CC(=O)Nc3ccc(F)cc3)CC2)s1 [Compound 15]			
